Patent EP4159213A1, “PHARMACEUTICAL COMPOSITIONS FOR USE IN PREVENTION AND/OR TREATMENT AND/OR CURE OF HEPATITIS B VIRUS” (Katholieke Universiteit Leuven, priority 2021, dated 2023)
Structures can show the parent of a compound that is named as a salt. Where two headings read alike, the source gives them in different places. Residues, ends and D or L forms follow the SMILES beside them.

Target: T1, human NTCP (Homo sapiens, UniProt Q14973)
T1 sequence (Q14973 1-349): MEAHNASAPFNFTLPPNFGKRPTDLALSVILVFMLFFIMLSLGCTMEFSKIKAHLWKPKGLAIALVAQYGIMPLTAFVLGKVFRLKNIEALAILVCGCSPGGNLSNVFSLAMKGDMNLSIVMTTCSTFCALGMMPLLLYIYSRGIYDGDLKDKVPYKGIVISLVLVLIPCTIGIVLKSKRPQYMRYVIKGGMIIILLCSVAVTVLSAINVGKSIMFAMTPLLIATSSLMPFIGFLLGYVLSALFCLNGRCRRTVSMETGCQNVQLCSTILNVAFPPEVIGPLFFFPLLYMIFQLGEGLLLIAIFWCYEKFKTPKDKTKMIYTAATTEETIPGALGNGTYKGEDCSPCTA
Assay: Inhibition of tauro-nor-THCA-24-DBD uptake in NTCP-transfected CHO cells
Type: cell-based
Parameters: expressed in transfected cells; host or cells: CHO cells, geneticin selection, expression induced with sodium butyrate
Settings: for concentration-dependent inhibition of tauro-nor-THCA-24-DBD uptake: multiple inhibitor concentrations
Description: The cells were placed in an incubator at 37 °C and 5% CO2. The culture medium consisted of DMEM with 1 g·L^-1 glucose and 25 mM HEPES, supplemented with 10% FBS, 0.05 mg·mL^-1 L-proline, 100 IU·mL^-1 penicillin, 100 […], 2 mM glutamine, 0.11 mg·mL^-1 sodium pyruvate. To ensure selection of NTCP-transfected cells, 0.5 mg·mL^-1 geneticin was added to the medium of the transfected cells. Cells were seeded in black 96-well plates with transparent bottom at a density of 6000 cells·well^-1 and 4000 cells·well^-1 for wild-type and transfected cells, respectively. The medium was replaced every other day and 5 mM sodium butyrate was added to induce protein expression at least 36 h before the start of the experiments. Experiments were performed on day 4 or 5 after seeding when confluence was reached.
Furthermore, to analyse the uptake experiments in NTCP-transfected CHO cells, cells were rinsed twice with 200 µL-well^-1 uptake buffer (HBSS containing 10 mM HEPES, pH 7.4) at 37 °C and subsequently preincubated with 100 µL uptake buffer for 15 minutes. For inhibition experiments, compounds were added at double concentration during preincubation. Uptake was initiated by adding 100 µL double-concentrated tauro-nor-THCA-24-DBD solution in uptake buffer. Cells were incubated for 15 minutes. The reaction was quenched by aspirating the incubation mixture and washing four times with ice cold uptake buffer. The cells were lysed with 100 µL 0.5% Triton X-100 in PBS and placed on a plate shaker (300 rpm) at room temperature for 30 minutes. Uptake of tauro-nor-THCA-24-DBD was determined using fluorescence spectroscopy (excitation 440 nm, emission 580 nm) using a Tecan Infinite 200 plate reader (Tecan Benelux, Mechelen, Belgium). Protein content of each well was determined with the BCA Protein assay (Thermo Fisher Scientific, Waltham, MA) performed according to the manufacturer's protocol. Uptake kinetics of tauro-nor-THCA-24-DBD were determined by incubating eight different concentrations in the absence of any compound. […] All conditions were tested in triplicate.
Uptake of tauro-nor-THCA-24-DBD in presence of compounds was expressed to uptake of the control for each batch, i.e. when no compound was present.
For determination of the IC50, the uptake in presence of various concentrations of inhibitor was fitted to the sigmoid Emax model: E = Emax −(Emax−E0) × (([I])^n)/(([I])^n + IC50^n) [formula] with E the uptake of tauro-nor-THCA-24-DBD, E0 the uptake at maximal inhibition by the compound, Emax the uptake at minimal inhibition, IC50 the concentration of the inhibitor at half maximal inhibition, n the Hill coefficient and [I] the concentration of the inhibitor. All curves were fitted with nonlinear least squares regression using R version 3.5.1.
Assuming competitive inhibition, the Cheng-Prusoff equation was used to determine the Ki value: Ki = (IC50)/(1 + ([S])/(Km)) [formula] where Ki is the binding affinity of the inhibitor, IC50 the concentration of the inhibitor at half maximal inhibition, [S] the substrate concentration, and Km the Michaelis-Menten constant of the substrate.

[1] = 3 µM tauro-nor-THCA-24-DBD, Cheng-Prusoff from IC50, screening hits, read-out: Ki
[2] = compound at equimolar concentration with 3 µM tauro-nor-THCA-24-DBD, triplicate
[3] = 3 µM tauro-nor-THCA-24-DBD, 15 minutes, Cheng-Prusoff from IC50, known NTCP inhibitors, read-out: Ki ± SE

Row | Molecule | Ki [1] [µM] | Uptake of tauro-nor-THCA-24-DBD (% of control) [2] | other results
1 | O=C(O)c1ccccc1Nc1cccc(C(F)(F)F)c1 [Flufenamic acid] | 7.51 | 44.12 % of control | 
2 | COc1cc2c(cc1OC)[C@@H]1C(=O)c3ccc4c(c3O[C@@H]1CO2)C=CC(C)(C)O4 [(-)-Deguelin] | 1.67 | 27.97 % of control | 
3 | Echinocystic acid |  | 24.64 % of control | 
4 | N[C@@H](Cc1ccccc1)C(=O)N[C@@H](Cc1ccc(O)cc1)C(=O)O [Phenylalanyltyrosine] (H-Phe-Tyr-OH) |  | 47.22 % of control | 
5 | Oc1c(Cl)cc(Cl)c(Cl)c1Cc1c(O)c(Cl)cc(Cl)c1Cl [Hexachlorophene] |  | 23.92 % of control | Ki: 0.26 µM
6 | O=C(O)c1cc([N+](=O)[O-])ccc1NCCCc1ccccc1 [5-nitro-2-phenylpropylaminobenzoic acid] | 0.82 | 49.55 % of control | 
7 | C=CC(C)(O)CCC=C(C)C (stereo not drawn) [(+)- Linalool] |  | 46.35 % of control | 
8 | CC/C(=C(/CC)c1ccc(O)cc1)c1ccc(O)cc1 [Diethylstilbestrol] | 1.57 | 48.51 % of control | 
9 | COP(=S)(OC)Oc1ccc(Sc2ccc(OP(=S)(OC)OC)cc2)cc1 [Temefos] | 4.16 | 38.51 % of control | 
10 | O=C1OC(c2ccc(O)c(S(=O)(=O)O)c2)(c2ccc(O)c(S(=O)(=O)O)c2)c2c(Br)c(Br)c(Br)c(Br)c21 [Bromosulfophthalein] |  |  | Ki [3]: 10.7 ± 3.1 µM; concentration-dependent inhibition of tauro-nor-THCA-24-DBD uptake (3 µM tauro-nor-THCA-24-DBD): concentration-dependent manner
11 | CCOc1nc2cccc(C(=O)OC(C)OC(=O)OC3CCCCC3)c2n1Cc1ccc(-c2ccccc2-c2nnn[nH]2)cc1 (stereo not shown) [Candesartan cilextil] | 0.34 | 19.76 % of control | 
12 | COC(=O)CC[C@@H](C)[C@H]1CC[C@H]2[C@@H]3[C@H](O)C[C@@H]4C[C@H](O)CC[C@]4(C)[C@H]3C[C@H](O)[C@]12C [Cholic acid, methyl ester] |  |  | Ki: 2.32 µM; Uptake of tauro-nor-THCA-24-DBD (% of control): 37.90 % of control
13 | CC(=O)O[C@H]1C[C@H](O[C@H]2[C@@H](O)C[C@H](O[C@H]3[C@@H](O)C[C@H](O[C@H]4CC[C@@]5(C)[C@H](CC[C@@H]6[C@@H]5C[C@@H](O)[C@]5(C)[C@@H](C7=CC(=O)OC7)CC[C@]65O)C4)O[C@@H]3C)O[C@@H]2C)O[C@H](C)[C@H]1O[C@@H]1O[C@H](CO)[C@@H](O)[C@H](O)[C@H]1O [Lanatoside c] |  |  | Ki: 125 µM; Uptake of tauro-nor-THCA-24-DBD (% of control): 45.13 % of control
14 | O=C(Nc1ccc([N+](=O)[O-])cc1Cl)c1cc(Cl)ccc1O [Niclosamide] | 0.08 | 35.45 % of control | 
15 | CCOc1nc2cccc(C(=O)O)c2n1Cc1ccc(-c2ccccc2-c2nnn[nH]2)cc1 [candesartan] |  |  | Ki (3 µM tauro-nor-THCA-24-DBD, values given with ± spread, read-out: Ki): 50.9 ± 9.9 µM
16 | COc1ccc(-c2c(OC)c3c(OC)c4c(cc3oc2=O)OC(C)(C)C=C4)cc1 [Robustic acid methyl ether] | 10.6 | 21.11 % of control | 

Row | Molecule | Ki [1] [µM] | Uptake of tauro-nor-THCA-24-DBD (% of control) [2] | other results
17 | O=C1c2c(O)cc(O)cc2OC(c2ccc(O)cc2)C1c1c(O)cc(O)c2c(=O)cc(-c3ccc(O)c(O)c3)oc12 (stereo not shown) [fukugetin] |  |  | concentration-dependent inhibition of tauro-nor-THCA-24-DBD uptake (3 µM tauro-nor-THCA-24-DBD): showed concentration-dependent inhibition
18 | COC(=O)[C@H]1[C@H]2C[C@H]3c4[nH]c5ccccc5c4CCN3C[C@H]2CC[C@@H]1O [Rauwolscine hydrochloride] | 39.3 |  | 
19 | COc1ccccc1Oc1c(NS(=O)(=O)c2ccc(C(C)(C)C)cc2)nc(-c2ncccn2)nc1OCCO [Bosentan] |  |  | Ki [3]: 6.3 ± 1.4 µM; concentration-dependent inhibition of tauro-nor-THCA-24-DBD uptake (3 µM tauro-nor-THCA-24-DBD): concentration-dependent manner
20 | O=C(O)c1cc(O)c2c(c1)[C@@H]([C@H]1c3cc(C(=O)O)cc(O)c3C(=O)c3c(O[C@@H]4O[C@H](CO)[C@@H](O)[C@H](O)[C@H]4O)cccc31)c1cccc(O[C@@H]3O[C@H](CO)[C@@H](O)[C@H](O)[C@H]3O)c1C2=O [sennoside B] |  |  | concentration-dependent inhibition of tauro-nor-THCA-24-DBD uptake (3 µM tauro-nor-THCA-24-DBD): did not show concentration-dependent inhibition
21 | CCC(=O)O[C@H]1[C@H](O[C@@H]2[C@@H](C)[C@H](O[C@H]3C[C@@](C)(OC)[C@@H](O)[C@H](C)O3)[C@@H](C)C(=O)O[C@H](CC)[C@@](C)(O)[C@H](O)[C@@H](C)C(=O)[C@H](C)C[C@@]2(C)O)O[C@H](C)C[C@@H]1N(C)C [Erythromycin estolate] | 0.52 | 8.49 % of control | 
22 | Oligomycin (A shown) | 0.26 | 33.87 % of control | 
23 | CC[C@H]1OC(=O)[C@H](C)[C@@H](O[C@H]2C[C@@](C)(OC)[C@@H](O)[C@H](C)O2)[C@H](C)[C@@H](O[C@@H]2O[C@H](C)C[C@H](N(C)C)[C@H]2O)[C@](C)(O)C[C@@H](C)C(=O)[C@H](C)[C@@H](O)[C@]1(C)O [erythromycin] |  |  | concentration-dependent inhibition of tauro-nor-THCA-24-DBD uptake (3 µM tauro-nor-THCA-24-DBD): Only candesartan showed inhibition
24 | COC(=O)C1=C(C)NC(C)=C(C(=O)OCCN(C)Cc2ccccc2)C1c1cccc([N+](=O)[O-])c1 (stereo not shown) [Nicardipine hydrochloride] | 3.53 | 42.69 % of control | 
25 | Oc1c(Cl)c(Cl)c(Cl)c(Cl)c1Cl [Pentachlorophenol] | 2.27 | 46.29 % of control | 
26 | CN[C@@H]1[C@@H](O)[C@@H](O[C@@H]2[C@@H](O)[C@H](O[C@H]3O[C@H]([C@@H](C)O)[C@@H](O)[C@H](O)[C@H]3N)[C@@H](N)C[C@H]2N)OC[C@]1(C)O [Geneticin] |  | 43.81 % of control | 
27 | COc1cc(OC)c2ccc(=O)oc2c1 [Citropten] |  | 46.97 % of control | 
28 | O=c1c(O)c(-c2ccc(O)c(O)c2)oc2cc(O)cc(O)c12 [quercetin] |  |  | concentration-dependent inhibition of tauro-nor-THCA-24-DBD uptake (3 µM tauro-nor-THCA-24-DBD): did not show concentration-dependent inhibition
29 | COC(=O)CC[C@@H](C)[C@H]1CC[C@H]2[C@@H]3CC[C@@H]4C[C@H](O)CC[C@]4(C)[C@H]3C[C@H](O)[C@]12C [Methyl deoxycholate] | 4.84 | 36.71 % of control | 
30 | COc1c(CC=C(C)C)c2c(c3oc(=O)c(-c4ccc(O)cc4)c(O)c13)C=CC(C)(C)O2 [Scandenin] |  | 38.92 % of control | 
31 | COc1cc2c(cc1OC)[C@@H]1C(=O)c3ccc4c(c3O[C@@H]1CO2)C[C@H](C(C)C)O4 [Dihydrorotenone] | 1.11 | 37.31 % of control | 
32 | O=C(OC[C@H]1O[C@@H](OC(=O)c2cc(O)c(O)c(OC(=O)c3cc(O)c(O)c(O)c3)c2)[C@H](OC(=O)c2cc(O)c(O)c(OC(=O)c3cc(O)c(O)c(O)c3)c2)[C@@H](OC(=O)c2cc(O)c(O)c(OC(=O)c3cc(O)c(O)c(O)c3)c2)[C@@H]1OC(=O)c1cc(O)c(O)c(OC(=O)c2cc(O)c(O)c(O)c2)c1)c1cc(O)c(O)c(OC(=O)c2cc(O)c(O)c(O)c2)c1 [Tannic acid] | 0.35 | 8.31 % of control | 
